The text below walks through data of patent US11800869B2, “Use of 6-oxo-1,4,5,6-tetrahydropyridazine-3-carboxylic acid, 1-methyl 6-oxo-1,4,5,6-tetrahydropyridazine-3-carboxylic acid and 1-alkyl-6-oxo-1,4,5,6-tetrahydropyridazine-3-carboxylic acid for improving growth performance in plants” (Advanced Crop Chem LLP, priority 2020, dated 2023).

Molecules are shown by their SMILES.

Assay type in all cases: in vivo
Test [1] has as its system Wheat. Nature of the test: Wheat seed treatment, field grown, root biomass (Example 7). Particulars: untreated 0.66. How it is done:
Wheat seeds were treated with 1-methyl 6-oxo-1,4,5,6 tetrahydropyridazine-3-carboxylic acid treated plants to examine the impact on root biomass for field grown plants. Wheat seeds were treated with 1-methyl 6-oxo-1,4,5,6 tetrahydropyridazine-3-carboxylic acid and field grown. The plants from seeds treated with 1-methyl 6-oxo-1,4,5,6 tetrahydropyridazine-3-carboxylic acid had larger root biomass (0.84 g dry weight/plant) compared with plants from untreated seeds (0.66 g dry weight/plant).

Test [2] relates to Winter wheat variety AWC 13. As to the kind of experiment: Wheat seed treatment, greenhouse, root biomass (Example 1). Conditions: seed treatment 10g per 1 ton of seed; greenhouse 21° C; 30 days after planting; untreated 0.65. How it is done:
Wheat seeds were treated with 6-oxo-1,4,5,6 tetrahydropyridazine-3-carboxylic acid (THP) and treated plants to examine the impact on shoot and root biomass. Winter wheat variety AWC 13 seeds were treated with either 6-oxo-1,4,5,6-tetrahydropyridazine-3-carboxylic acid (THP) or 1-methyl 6-oxo-1,4,5,6 tetrahydropyridazine-3-carboxylic acid (MTHP) at an effective rate of 10g diluted in 2 L water plus 0.25% Nouryon wetter and applied to 1 ton of seed. These seed were planted in coarse river sand and grown in a greenhouse under ambient light at the greenhouse at 21° C. Plants were irrigated every other day with water containing 50% strength Hoaglands solution. Plants were assessed for emergence and biomass accumulation 30 days after planting. The plants from seeds treated with 6-oxo-1,4,5,6-tetrahydropyridizin-3-carboxylic acid or 1-methyl 6-oxo-1,4,5,6 tetrahydropyridazine-3-carboxylic acid had larger root biomasses (0.83, 0.85 g, dry weight/plant) compared with plants from untreated seeds (0.65 g dry weight/plant).

Test [3] relates to Wheat plants (Variety AWC 13). Nature of the test: Foliar treatment of wheat, foliar and root dry biomass (Example 5). Conditions: foliar treatment at Zadoks GS 15-20, 30 days after application, mean of 10 plants. The source says:
Wheat plants (Variety AWC 13) were given a foliar treatment of 6-oxo-1,4,5,6-tetrahydropyridazine-3-carboxylic acid(THP) or 1-methyl 6-oxo-1,4,5,6 tetrahydropyridazine-3-carboxylic acid (MTHP) and their foliar and root dry biomass determined 30 days after application. The foliar applications were applied at approximately at Zadoks GS 15-20 (see FIG. 1) and assessed 30 days later at Zadoks GS 22-24 (also shown in FIG. 1).

Test [4] relates to Field grown wheat plants (Var: AWC 13). Nature of the test: Foliar treatment of field grown wheat (Example 6). Particulars: foliar treatment at Zadoks GS 25-26, 100 g in 200 L water, mean of 10 plants. How it is done:
Field grown wheat plants (Var: AWC 13) were given foliar treatment at Zadoks GS 25-26 (FIG. 1) of 6-oxo-1,4,5,6 tetrahydropyridazine-3-carboxylic acid (THP) or 1-methyl 6-oxo-1,4,5,6 tetrahydropyridazine-3-carboxylic acid (MTHP) both at 100 g in 200 L water plus 0.25% Nouryon wetter. Plants were grown under standard UK wheat growing cultural practice (https://andb.org.uk/wheatgg). Yield was assessed at harvest.

In test [5] the test system is wheat plants (Variety Skyfall). As to the kind of experiment: Foliar treatment of greenhouse grown wheat, foliar and root biomass (Example 4). Conditions: foliar treatment, 30 days later, Zadocks growth stage 22-24. The procedure:
Wheat, corn and pepper seeds were treated with 6-oxo-1,4,5,6-tetrahydropyridizine-3-carboxylic acid (THP) using the same methodology and growth conditions as described in example 1 and the resulting plants were also treated with a light foliar cover spray using an electric hand-held sprayer. (100 g in 200 L water plus 0.25% Nouryon wetter) of 6-oxo-1,4,5,6 tetrahydropyridazine-3-carboxylic acid (30 days post emergence (wheat at Zadoks GS 14 (see FIG. 1), maize at V2, Pepper at 3-4 leaf stage) and then assessed for root and shoot biomass 45 days later. At 75 days post planting the plants were assessed for root and shoot biomass as measured with dry weight. Greenhouse grown wheat plants (Variety […]) were given foliar treatment of 1-methyl 6-oxo-1,4,5,6 tetrahydropyridazine-3-carboxylic acid (MTHP) or 6-oxo-1,4,5,6 tetrahydropyridazine-3-carboxylic acid (THP), utilizing the same methodology as in example 2. Foliar and root biomass were determined 30 days later at Zadocks growth stage 22-24.

Regarding `CN1N=C(C(=O)O)CCC1=O` [MTHP, 1-methyl 6-oxo-1,4,5,6 tetrahydropyridazine-3-carboxylic acid], the root biomass in test [1] is 0.84 g dry weight/plant; in test [2], 0.85 g, dry weight/plant. Moreover, the “Dry Weight Shoot” value in test [3] (Con 0.47) was found to be 0.98; in test [4] (Con 0.47), 0.98; in test [5] (Con 0.55) it was 0.7 g. Further, the “Dry Weight Root” value in test [3] (Con 0.65) is recorded as 2.06; in test [4] (Con 0.65) it was 2.06; in test [5] (Con 1.03), 1.64 g.
